Results published in patent US10118930B2, “Piperidinylpyrazolopyrimidinones and their use” (BAYER PHARMA AKTIENGESELLSCHAFT, priority 2015, dated 2018).
Counter-ions that a name gives are not always drawn.

Each compound was assayed on clot lysis (fibrinolysis) in diluted human citrated plasma, tPA-induced (assay: Plasma-based clot lysis assay (5%)). Conditions: human citrated platelet-poor plasma 5%, fibrinogen 3 μM, CaCl2 10 mM, tPA 0.2 nM, 37° C., OD at 405 nm.
Assay type: biochemical
Description: B-2. Plasma-based Clot Lysis Assay (5%)
The clot-lysis test system configures the kinetics of clot formation and degradation in vitro and allows quantifying modulation of the process by selected test compounds.
The test compounds were dissolved in 1% acetic acid and further complemented with an equal volume of DMSO. The resulting stock solutions were serially diluted in 0.5% acetic acid/50% DMSO. 1 μL aliquots of these solutions were placed into 384 well microplates (Greiner, black, transparent bottom), followed by 30 μL of diluted human citrated plasma (platelet-poor, final concentration: 5%; supplemented with fibrinogen, final concentration: 3 μM; dilution buffer: 20 mM HEPES, 150 mM NaCl, 0.01% Brij (pH 7)). The reactions were started by addition of 20 μL of CaCl2 (final concentration: 10 mM), and tPA (tissue plasminogen activator, final concentration: 0.2 nM) in dilution buffer, followed by an additional volume of 20 μL dilution buffer for improved mixing. The reactions were incubated at 37° C. […] IC50 values were determined by comparing the resulting time courses with the time course of a blank control reaction.

Compound	IC50 [nM]
Cc1ccc(-c2noc(-c3cnn4c(C5CCNCC5)cc(=O)[nH]c34)n2)cc1Cl [Example 123, 3-[3-(3-Chloro-4-methylphenyl)-1,2,4-oxadiazol-5-yl]-7-(piperidin-4-yl)pyrazolo[1,5-a]pyrimidin-5(4H)-one hydrochloride]	47
N#Cc1csc(-c2cnn3c(C4CCNCC4)cc(=O)[nH]c23)c1 [Example 68, 5-[5-Oxo-7-(piperidin-4-yl)-4,5-dihydropyrazolo[1,5-a]pyrimidin-3-yl]thiophene-3-carbonitrile trifluoroacetate]	11
O=c1cc(C2CCNCC2)n2ncc(-c3nnc(CCN4CCOCC4)o3)c2[nH]1 [Example 282, 3-{5-[2-(morpholin-4-yl)ethyl]-1,3,4-oxadiazol-2-yl}-7-(piperidin-4-yl)pyrazolo[1,5-a]pyrimidin-5(4H)-one hydrochloride]	34
CCN(Cc1ccccc1)C(=O)c1c(C)nn2c(C3CCNCC3)cc(=O)[nH]c12 [Example 423, N-benzyl-N-ethyl-2-methyl-5-oxo-7-(piperidin-4-yl)-4,5-dihydro-pyrazolo[1,5-a] pyrimidine-3-carboxamide hydrochloride]	33
Cc1ccc(-c2nnc(-c3cnn4c(C5CCNCC5)cc(=O)[nH]c34)o2)cc1 [Example 170, 3-[5-(4-methylphenyl)-1,3,4-oxadiazol-2-yl]-7-(piperidin-4-yl)pyrazolo[1,5-a]pyrimidin-5 (4H)-one hydrochloride]	34
O=C(c1cnn2c(C3CCNCC3)cc(=O)[nH]c12)N1CCC12CCOCC2 [Example 359, 3-(7-oxa-1-azaspiro[3.5]non-1-ylcarbonyl)-7-(piperidin-4-yl)pyrazolo[1,5-a]pyrimidin-5(4H)-one trifluoroacetate]	120
NC(=O)c1noc(-c2cnn3c(C4CCNCC4)cc(=O)[nH]c23)n1 [Example 200, 5-[5-oxo-7-(piperidin-4-yl)-4,5-dihydropyrazolo[1,5-a]pyrimidin-3-yl]-1,2,4-oxadiazole-3-carboxamide hydrochloride]	34
O=c1cc(C2CCNCC2)n2ncc(-c3nc(-c4cc(Cl)cc(Cl)c4)no3)c2[nH]1 [Example 151, 3-[3-(3,5-Dichlorophenyl)-1,2,4-oxadiazol-5-yl]-7-(piperidin-4-yl)pyrazolo[1,5-a]pyrimidin-5 (4H)-one hydrochloride]	44
Cc1nn2c(C3CCNCC3)cc(=O)[nH]c2c1C(=O)N1CCSCC1 [Example 397, 2-methyl-7-(piperidin-4-yl)-3-(thiomorpholin-4-ylcarbonyl)pyrazolo [1,5-a]pyrimidin-5(4H)-one hydrochloride]	36
Cc1nc(-c2ccccc2)sc1-c1cnn2c(C3CCNCC3)cc(=O)[nH]c12 [Example 187, 3-(4-methyl-2-phenyl-1,3-thiazol-5-yl)-7-(piperidin-4-yl)pyrazolo[1,5-a]pyrimidin-5(4H)-one hydrochloride]	35
CC1(C)CCN(Cc2cnn3c(C4CCNCC4)cc(=O)[nH]c23)C1 [Example 324, 3-[(3,3-dimethylpyrrolidin-1-yl)methyl]-7-(piperidin-4-yl)pyrazolo[1,5-a]pyrimidin-5(4H)-one hydrochloride]	150
O=c1cc(C2CCNCC2)n2ncc(-c3nc(Cc4ccccc4)no3)c2[nH]1 [Example 106, 3-(3-benzyl-1,2,4-oxadiazol-5-yl)-7-(piperidin-4-yl)pyrazolo[1,5-a]pyrimidin-5(4H)-one]	63
Cc1nn2c(C3CCNCC3)cc(=O)[nH]c2c1C(=O)N1CCNC(=O)CC1 [Example 430, 2-methyl-3-[(5-oxo-1,4-diazepan-1-yl)carbonyl]-7-(piperidin-4-yl) pyrazolo[1,5-a] pyrimidin-5(4H)-one hydrochloride]	120
Cc1nn2c(C3CCNCC3)cc(=O)[nH]c2c1C(=O)N1Cc2ccccc2C1 [Example 410, 3-(1,3-dihydro-2H-isoindol-2-ylcarbonyl)-2-methyl-7-(piperidin-4-yl) pyrazolo[1,5-a] pyrimidin-5(4H)-one hydrochloride]	45
O=c1cc(C2CCNCC2)n2ncc(-c3cccc(C(F)(F)F)c3)c2[nH]1 [Example 58, 7-(Piperidin-4-yl)-3-[3-(trifluoromethyl)phenyl]pyrazolo[1,5-a]pyrimidin-5(4H)-one hydrochloride]	16
COc1cccc(-c2cnn3c(C4CCNCC4)cc(=O)[nH]c23)c1 [Example 60, 3-(3-Methoxyphenyl)-7-(piperidin-4-yl)pyrazolo[1,5-a]pyrimidin-5(4H)-one hydrochloride]	13
Cc1ccc(F)cc1NC(=O)c1cnn2c(C3CCNCC3)cc(=O)[nH]c12 [Example 76, N-(5-fluoro-2-methylphenyl)-5-oxo-7-(piperidin-4-yl)-4,5-dihydropyrazolo[1,5-a]pyrimidine-3-carboxamide]	29
O=c1cc(C2CCNCC2)n2ncc(-c3nc(Cc4ccc(Cl)cc4)no3)c2[nH]1 [Example 210, 3-[3-(4-chlorobenzyl)-1,2,4-oxadiazol-5-yl]-7-(piperidin-4-yl)pyrazolo[1,5-a]pyrimidin-5(4H)-one hydrochloride]	34
O=C(N=S1(=O)CCOCC1)c1cnn2c(C3CCNCC3)cc(=O)[nH]c12 [Example 37, N-(4-Oxido-1,4-lambda^4-oxathian-4-ylidene)-5-oxo-7-(piperidin-4-yl)-4,5-dihydropyrazolo[1,5-a]pyrimidine-3-carboxamide hydrochloride]	29
CC(C)c1nc(-c2cnn3c(C4CCNCC4)cc(=O)[nH]c23)no1 [Example 256, 7-(piperidin-4-yl)-3-[5-(propan-2-yl)-1,2,4-oxadiazol-3-yl]pyrazolo[1,5-a]pyrimidin-5(4H)-one hydrochloride]	28
COc1cc(-c2noc(-c3cnn4c(C5CCNCC5)cc(=O)[nH]c34)n2)ccc1C [Example 116, 3-[3-(3-Methoxy-4-methylphenyl)-1,2,4-oxadiazol-5-yl]-7-(piperidin-4-yl)pyrazolo[1,5-a]pyrimidin-5(4H)-one hydrochloride]	39
COc1ccc(C2(c3nc(-c4cnn5c(C6CCNCC6)cc(=O)[nH]c45)no3)CC2)cc1 [Example 245, 3-{5-[1-(4-methoxyphenyl)cyclopropyl]-1,2,4-oxadiazol-3-yl}-7-(piperidin-4-yl)pyrazolo[1,5-a]pyrimidin-5(4H)-one hydrochloride]	29
O=c1cc(C2CCNCC2)n2ncc(-c3nc(-c4cccc(OC(F)(F)F)c4)no3)c2[nH]1 [Example 124, 7-(Piperidin-4-yl)-3-{3-[3-(trifluoromethoxy)phenyl]-1,2,4-oxadiazol-5-yl}pyrazolo[1,5-a]pyrimidin-5(4H)-one hydrochloride]	38
O=c1cc(C2CCNCC2)n2ncc(-c3noc(Cc4cccc(Cl)c4)n3)c2[nH]1 [Example 217, 3-[5-(3-chlorobenzyl)-1,2,4-oxadiazol-3-yl]-7-(piperidin-4-yl)pyrazolo[1,5-a]pyrimidin-5(4H)-one hydrochloride]	36
O=c1cc(C2CCNCC2)n2ncc(-c3cccs3)c2[nH]1 [Example 59, 7-(Piperidin-4-yl)-3-(2-thienyl)pyrazolo[1,5-a]pyrimidin-5(4H)-one hydrochloride]	15
